In PubChem BioAssay AID248 (DTP/NCI, 2004):
Several values for one entry are separate records, joined by “and”; a condition that tells them apart may be missing. Equal entries are not always repeated. Inconclusive results and toxic doses are left out. Cut-off read from the data, not from the text of the source: active = T/C of 150% or more; inactive = T/C below 125%.

Tested on: L1210 leukemia ip in BDF1 mice, survival T/C
Experiment: NCI In Vivo Anticancer Drug Screen. Data for tumor model L1210 Leukemia (intraperitoneal) in B6D2F1 (BDF1) mice
Settings: endpoint: mean survival time, higher = longer survival
Method in brief: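 Value reflects the ratio of survival in compound-treated mice to survival in vehicle-treated controls, with both groups carrying the same transplanted tumor.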

[1] = dose: 100.0 mg/kg/injection, schedule: Q01DX001 (ip), vehicle: carboxymethylcellulose (CMC)
[2] = dose: 200.0 mg/kg/injection, schedule: Q01DX001 (ip), vehicle: carboxymethylcellulose (CMC)
[3] = dose: 400.0 mg/kg/injection, schedule: Q01DX001 (ip), vehicle: carboxymethylcellulose (CMC)
[4] = dose: 100.0 mg/kg/injection, schedule: Q04DX003 (ip), vehicle: saline with Tween-80
[5] = dose: 200.0 mg/kg/injection, schedule: Q04DX003 (ip), vehicle: saline with Tween-80
[6] = dose: 400.0 mg/kg/injection, schedule: Q04DX003 (ip), vehicle: saline with Tween-80
[7] = dose: 100.0 mg/kg/injection, schedule: Q01DX001 (ip), vehicle: saline
[8] = dose: 100.0 mg/kg/injection, schedule: Q04DX003 (ip), vehicle: saline
[9] = dose: 200.0 mg/kg/injection, schedule: Q01DX001 (ip), vehicle: saline
[10] = dose: 200.0 mg/kg/injection, schedule: Q04DX003 (ip), vehicle: saline
[11] = dose: 400.0 mg/kg/injection, schedule: Q01DX001 (ip), vehicle: saline
[12] = dose: 400.0 mg/kg/injection, schedule: Q04DX003 (ip), vehicle: saline
[13] = dose: 50.0 mg/kg/injection, schedule: Q01DX001 (ip), vehicle: saline
[14] = dose: 25.0 mg/kg/injection, schedule: Q01DX009 (ip), vehicle: saline
[15] = dose: 50.0 mg/kg/injection, schedule: Q01DX009 (ip), vehicle: saline
[16] = dose: 12.5 mg/kg/injection, schedule: Q01DX009 (ip), vehicle: Klucel (hydroxypropylcellulose) (HPC)
[17] = dose: 25.0 mg/kg/injection, schedule: Q01DX009 (ip), vehicle: Klucel (hydroxypropylcellulose) (HPC)

Measured: T/C

CCCN(CCC#N)CN1C(=O)c2ccccc2C1=O
inactive: [1] 110 % of control | dose: 100.0 mg/kg/injection, schedule: Q01DX009 (ip), vehicle: carboxymethylcellulose (CMC) 90 % of control | dose: 100.0 mg/kg/injection, schedule: Q04DX002 (ip), vehicle: carboxymethylcellulose (CMC) 98 % of control and 100 % of control | dose: 100.0 mg/kg/injection, schedule: Q04DX003 (ip), vehicle: carboxymethylcellulose (CMC) 95 % of control | [2] 113 % of control | dose: 200.0 mg/kg/injection, schedule: Q01DX009 (ip), vehicle: carboxymethylcellulose (CMC) 93 % of control | dose: 200.0 mg/kg/injection, schedule: Q04DX002 (ip), vehicle: carboxymethylcellulose (CMC) 94 % of control and 102 % of control | dose: 200.0 mg/kg/injection, schedule: Q04DX003 (ip), vehicle: carboxymethylcellulose (CMC) 101 % of control | [3] 97 % of control | dose: 400.0 mg/kg/injection, schedule: Q01DX009 (ip), vehicle: carboxymethylcellulose (CMC) 100 % of control | dose: 400.0 mg/kg/injection, schedule: Q04DX002 (ip), vehicle: carboxymethylcellulose (CMC) 94 % of control and 97 % of control | dose: 400.0 mg/kg/injection, schedule: Q04DX003 (ip), vehicle: carboxymethylcellulose (CMC) 107 % of control

COC(=O)C1=C(N)CCc2ccccc21
inactive: [4] 97 % of control | [5] 103 % of control | [6] 101 % of control

CS(=O)C(Cl)C(O)c1ccccc1 (stereo unspecified)
inactive: dose: 100.0 mg/kg/injection, schedule: Q03DX002 (ip), vehicle: saline with Tween-80 117 % of control | dose: 400.0 mg/kg/injection, schedule: Q03DX002 (ip), vehicle: saline with Tween-80 110 % of control

CC(C)(C)C1CC(Cl)C(=O)C(Cl)C1 (stereo unspecified)
inactive: [7] 104 % of control | [8] 96 % of control | [9] 94 % of control | [10] 112 % of control | [11] 88 % of control | [12] 94 % of control

Cc1ccc(NC(=O)NNC(=O)CCCC(=O)NNC(=O)Nc2ccc(C)cc2)cc1
inactive: [13] 96 % of control | [7] 102 % of control | [9] 96 % of control | [11] 96 % of control

NC(N)=N/N=C/c1cc([N+](=O)[O-])ccc1OCC(=O)O
inactive: dose: 60.0 mg/kg/injection, schedule: Q01DX Z (oral), vehicle: methylcellulose (MC) 98 % of control | dose: 120.0 mg/kg/injection, schedule: Q01DX Z (oral), vehicle: methylcellulose (MC) 98 % of control | dose: 240.0 mg/kg/injection, schedule: Q01DX Z (ip), vehicle: methylcellulose (MC) 95 % of control | dose: 240.0 mg/kg/injection, schedule: Q01DX Z (oral), vehicle: methylcellulose (MC) 115 % of control | dose: 360.0 mg/kg/injection, schedule: Q01DX Z (ip), vehicle: methylcellulose (MC) 93 % of control | dose: 480.0 mg/kg/injection, schedule: Q01DX Z (ip), vehicle: methylcellulose (MC) 100 % of control | dose: 480.0 mg/kg/injection, schedule: Q01DX Z (oral), vehicle: methylcellulose (MC) 102 % of control

CCC1CCNCC1
inactive: [14] 113 % of control | [15] 102 % of control

NC12C3(Cl)C4(Cl)C5(OCCO5)C5(Cl)C3(Cl)C1(Cl)C5(Cl)C24Cl (stereo unspecified)
inactive: [13] 102 % of control | [7] 102 % of control | [9] 90 % of control | [11] 102 % of control

CCCCC(CC)C(O)C(C)C(C)O (stereo unspecified)
inactive: dose: 100.0 mg/kg/injection, schedule: Q01DX009 (ip), vehicle: Klucel (hydroxypropylcellulose) (HPC) 97 % of control | dose: 100.0 mg/kg/injection, schedule: Q04DX003 (ip), vehicle: Klucel (hydroxypropylcellulose) (HPC) 101 % of control | dose: 200.0 mg/kg/injection, schedule: Q01DX009 (ip), vehicle: Klucel (hydroxypropylcellulose) (HPC) 102 % of control | dose: 200.0 mg/kg/injection, schedule: Q04DX003 (ip), vehicle: Klucel (hydroxypropylcellulose) (HPC) 98 % of control | dose: 400.0 mg/kg/injection, schedule: Q01DX009 (ip), vehicle: Klucel (hydroxypropylcellulose) (HPC) 100 % of control | dose: 400.0 mg/kg/injection, schedule: Q04DX003 (ip), vehicle: Klucel (hydroxypropylcellulose) (HPC) 95 % of control

COc1ccc2c(c1OC)CCN1C3=C(CC4(CC3)OCCO4)C(=O)CC21 (stereo unspecified)
inactive: [4] 97 % of control | [5] 88 % of control | [6] 101 % of control

O=S1(=O)CCNNCC1
inactive: dose: 37.5 mg/kg/injection, schedule: Q01DX009 (ip), vehicle: saline 100 % of control | dose: 75.0 mg/kg/injection, schedule: Q01DX009 (ip), vehicle: saline 109 % of control | dose: 150.0 mg/kg/injection, schedule: Q01DX009 (ip), vehicle: saline 105 % of control | dose: 300.0 mg/kg/injection, schedule: Q01DX009 (ip), vehicle: saline 103 % of control

Cc1cc(CCl)c(C)c(Br)c1C
inactive: dose: 6.25 mg/kg/injection, schedule: Q01DX009 (ip), vehicle: Klucel (hydroxypropylcellulose) (HPC) 95 % of control | [16] 90 % of control | [17] 89 % of control | dose: 50.0 mg/kg/injection, schedule: Q01DX009 (ip), vehicle: Klucel (hydroxypropylcellulose) (HPC) 92 % of control

CC(=O)Cc1cc(C)nc(/N=C(\N)Nc2ccccc2)n1
inactive: dose: 100.0 mg/kg/injection, schedule: Q04DX002 (ip), vehicle: Klucel (hydroxypropylcellulose) (HPC) 93 % of control | dose: 200.0 mg/kg/injection, schedule: Q04DX002 (ip), vehicle: Klucel (hydroxypropylcellulose) (HPC) 104 % of control

Cc1nnc(NS(=O)(=O)c2ccc(N=Nc3cc(N=Nc4ccccc4)c(N)nc3N)cc2)s1
inactive: [1] 87 % of control | [2] 89 % of control | [3] 97 % of control

CN(C)CCCNc1n[nH]c2cccc(Cl)c12
inactive: [15] 104 % of control | dose: 100.0 mg/kg/injection, schedule: Q01DX009 (ip), vehicle: saline 96 % of control | dose: 200.0 mg/kg/injection, schedule: Q01DX009 (ip), vehicle: saline 104 % of control

C[N+](C)(CC(=O)Nc1ccc(Oc2ccc(Cl)cc2)cc1)Cc1ccccc1
inactive: dose: 12.5 mg/kg/injection, schedule: Q01DX001 (ip), vehicle: Klucel (hydroxypropylcellulose) (HPC) 104 % of control | [16] 91 % of control | dose: 25.0 mg/kg/injection, schedule: Q01DX001 (ip), vehicle: Klucel (hydroxypropylcellulose) (HPC) 101 % of control | [17] 88 % of control | dose: 50.0 mg/kg/injection, schedule: Q01DX001 (ip), vehicle: Klucel (hydroxypropylcellulose) (HPC) 93 % of control

COc1cc(C=C(C#N)C#N)cc(I)c1O
inactive: dose: 25.0 mg/kg/injection, schedule: Q04DX003 (ip), vehicle: Klucel (hydroxypropylcellulose) (HPC) 98 % of control | dose: 50.0 mg/kg/injection, schedule: Q04DX003 (ip), vehicle: Klucel (hydroxypropylcellulose) (HPC) 104 % of control

CCOC(=O)C(OCC)c1ccccc1 (stereo unspecified)
inactive: [8] 97 % of control | [10] 101 % of control | [12] 89 % of control

NC(=O)CC(N)C(N)=O (stereo unspecified)
inactive: dose: 100.0 mg/kg/injection, schedule: Q04DX002 (ip), vehicle: saline 98 % of control | dose: 200.0 mg/kg/injection, schedule: Q04DX002 (ip), vehicle: saline 106 % of control | dose: 400.0 mg/kg/injection, schedule: Q04DX002 (ip), vehicle: saline 109 % of control

NC(Cc1ccc(N(CCCl)Cc2ccccc2)cc1)C(=O)O (stereo unspecified)
inactive: dose: 3.12 mg/kg/injection, schedule: Q01DX009 (ip), vehicle: distilled water + Tween-80 97 % of control | dose: 6.25 mg/kg/injection, schedule: Q01DX009 (ip), vehicle: distilled water + Tween-80 107 % of control | dose: 12.5 mg/kg/injection, schedule: Q01DX009 (ip), vehicle: distilled water + Tween-80 96 % of control | dose: 25.0 mg/kg/injection, schedule: Q01DX009 (ip), vehicle: distilled water + Tween-80 113 % of control | dose: 100.0 mg/kg/injection, schedule: Q01DX009 (ip), vehicle: distilled water + Tween-80 97 % of control

CCOC(=O)NCC[N+](C)(C)C
inactive: dose: 6.25 mg/kg/injection, schedule: Q01DX009 (ip), vehicle: saline 94 % of control | dose: 12.5 mg/kg/injection, schedule: Q01DX009 (ip), vehicle: saline 100 % of control | [14] 102 % of control
